Test systems include M14 melanoma; A498 renal; SK-MEL-5 melanoma; SK-OV-3 ovarian; ACHN renal; MOLT-4 leukemia; SR leukemia; MALME-3M melanoma; HT29 colon; MDA-MB-435.
What all share (test): DTP human tumour cell line panel, 48 h

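A five-concentration, 48-hour dose response in 96-well plates underlies each endpoint, interpolated linearly between surrounding concentrations. GI50 = concentration required for 50% inhibition of growth. TGI denotes the concentration required for complete inhibition of growth.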

Consider `O=S(=O)([O-])[O-].[Fe+2].[OH2+]c1c(Cl)cc(Cl)cc1/C=N/Nc1ccccn1`, for which the concentration for total growth inhibition (TGI) in the assay on M14 melanoma amounted to 7.44 µM; in the assay on A498 renal, 4.5 µM; with SK-MEL-5 melanoma it was 15.1 µM; in the assay with SK-OV-3 ovarian it was 3.7 µM; in the assay with ACHN renal, 1.12 µM; in the assay with MOLT-4 leukemia, 2.94 µM. Further, the TGI with SR leukemia is 4.03 µM; with MALME-3M melanoma it was 3.57 µM; with HT29 colon it was 3.6 µM. For the same compound, the GI50 in the assay with SK-OV-3 ovarian is 1.86 µM.
With `CC(=O)[C@]12OC(=O)C3=C1[C@H](CC[C@@H]3C)[C@@H](C)C[C@H]2C=C(C)C`, the TGI in the assay on MDA-MB-435 was 16 µM; in the assay on M14 melanoma, 16.7 µM; with A498 renal, 15.1 µM; with SK-MEL-5 melanoma, 11.8 µM; in the assay with SK-OV-3 ovarian, 21.3 µM; in the assay with ACHN renal, 15.3 µM. In addition, the TGI turned out to be 18.6 µM with MOLT-4 leukemia, 16.8 µM with SR leukemia and 13.9 µM in the assay on HT29 colon.
`O=C1O/C(=C\C=C\CO)C=C1/C=C/CO`: the TGI in the assay with MDA-MB-435 is above 100 µM; in the assay on M14 melanoma, 43.1 µM; in the assay on SK-MEL-5 melanoma, 46 µM; in the assay with SK-OV-3 ovarian, above 100 µM; in the assay with ACHN renal, 69.5 µM; in the assay with MOLT-4 leukemia it was above 100 µM. For the same compound, the TGI with SR leukemia was determined as 71.4 µM; with MALME-3M melanoma, 32.5 µM; in the assay on HT29 colon it was 88.5 µM.
Turning to `N=C(N)SCCN1CCCCC1`, the concentration for total growth inhibition (TGI) in the assay with MDA-MB-435 was 52.7 µM; in the assay on M14 melanoma, 50.3 µM; with A498 renal it was above 100 µM; in the assay with SK-MEL-5 melanoma, above 100 µM; in the assay with SK-OV-3 ovarian it was above 100 µM; in the assay with ACHN renal it was above 100 µM. Moreover, the TGI with MOLT-4 leukemia was 58 µM; with SR leukemia, 60.1 µM; with MALME-3M melanoma, 32.1 µM; with HT29 colon, above 100 µM.
For `NC(=S)N/N=C1\CC(c2ccccc2)Nc2ccccc21` (stereo not drawn), the TGI in the assay with M14 melanoma is above 100 µM; in the assay on A498 renal, 68.2 µM; with SK-MEL-5 melanoma, 50.9 µM; in the assay with SK-OV-3 ovarian, above 100 µM; in the assay with ACHN renal, above 100 µM; with MOLT-4 leukemia, 73.2 µM. In addition, the TGI in the assay on MALME-3M melanoma worked out at 97 µM; in the assay with HT29 colon, 48.5 µM.
As for `Nc1ccc(S(=O)(=O)NCCS(=O)(=O)O)cc1`, the concentration for total growth inhibition (TGI) with MDA-MB-435, with M14 melanoma, in the assay with A498 renal, with SK-MEL-5 melanoma, in the assay with ACHN renal and with MOLT-4 leukemia was above 100 µM in each case. For the same compound, the TGI in the assay with SR leukemia, in the assay on MALME-3M melanoma and in the assay with HT29 colon was above 100 µM in each case.
On to `Cc1cccc(/C=C2/C(=O)Nc3ccccc32)n1`, for which the TGI in the assay with MDA-MB-435 is 60.9 µM; in the assay with M14 melanoma, 31.2 µM; in the assay on A498 renal it was 46.9 µM; in the assay with SK-MEL-5 melanoma, 26.3 µM; in the assay on SK-OV-3 ovarian, 52 µM; with ACHN renal, above 82.1 µM. The TGI with MOLT-4 leukemia was 44.5 µM; with SR leukemia it was 7.3 µM; with MALME-3M melanoma, 49.1 µM; with HT29 colon, above 100 µM. In addition, the GI50 in the assay on SR leukemia was 2.11 µM.
As for `CCCCCCCCc1ccc(CCC(N)(CO)CO)cc1`, the GI50 is 1.82 µM in the assay on MDA-MB-435; 3.34 µM with A498 renal; 1.62 µM in the assay on SK-MEL-5 melanoma; 1.61 µM in the assay with SK-OV-3 ovarian; 1.61 µM in the assay on ACHN renal; 1.64 µM in the assay with MOLT-4 leukemia. Also, the GI50 was 1.39 µM in the assay with SR leukemia, 2.32 µM with MALME-3M melanoma and 1.76 µM in the assay with HT29 colon. For the same compound, the TGI in the assay on MDA-MB-435 was found to be 3.45 µM; with A498 renal it was 22.6 µM; with SK-MEL-5 melanoma it was 2.98 µM; in the assay on SK-OV-3 ovarian, 3.09 µM; in the assay on ACHN renal it was 2.97 µM; in the assay with MOLT-4 leukemia, 3.44 µM. The values for the TGI in the assay with SR leukemia, in the assay with MALME-3M melanoma and in the assay with HT29 colon were 4.28 µM, 5.8 µM and 3.31 µM, respectively.
With `COc1cc(O)c2c(=O)c(OC)c(-c3ccc(OC)c(OC)c3)oc2c1.[Zn+2]`, the GI50 with M14 melanoma was 45.4 µM; in the assay on SK-MEL-5 melanoma it was 17.6 µM; with ACHN renal, 35.4 µM; in the assay with MOLT-4 leukemia it was above 100 µM; in the assay with SR leukemia, above 100 µM; in the assay on MALME-3M melanoma, 33.3 µM. In addition, the GI50 with HT29 colon is 41.8 µM. Moreover, the TGI was above 100 µM in the assay with M14 melanoma; above 100 µM in the assay with SK-MEL-5 melanoma; 47.2 µM with SK-OV-3 ovarian; above 100 µM with ACHN renal; above 100 µM in the assay with MOLT-4 leukemia; above 100 µM in the assay on SR leukemia. Also, the TGI in the assay with MALME-3M melanoma and with HT29 colon was above 100 µM throughout.
As to `Cc1ncc(COP(=O)(O)O)c(C)c1O`, the TGI in the assay with MDA-MB-435, in the assay with M14 melanoma, with A498 renal, with SK-MEL-5 melanoma, in the assay on ACHN renal and in the assay on MOLT-4 leukemia was above 100 µM throughout. Also, the concentration for total growth inhibition (TGI) with SR leukemia, in the assay on MALME-3M melanoma and with HT29 colon was above 100 µM each time.
As to `CC(=O)C(N=NC1CCC(S(=O)(=O)NB2N=CS2)CC1)C(=O)Nc1ccccc1C` (stereo not drawn), the TGI was 35.5 µM with M14 melanoma; 33.6 µM in the assay with A498 renal; 26.9 µM in the assay with SK-MEL-5 melanoma; 50.6 µM with SK-OV-3 ovarian; 24.6 µM in the assay on ACHN renal; above 100 µM in the assay with MOLT-4 leukemia. Further, the TGI was above 100 µM with SR leukemia, 30.5 µM in the assay on MALME-3M melanoma and 29.9 µM in the assay with HT29 colon.
With `C[N+]1(c2ccccc2)C=C(c2ccccc2)SC1=S` (stereo not drawn), the TGI is above 100 µM in the assay on MDA-MB-435; above 100 µM in the assay on M14 melanoma; 46.7 µM in the assay on A498 renal; above 100 µM with SK-MEL-5 melanoma; above 100 µM in the assay with ACHN renal; above 100 µM in the assay with SR leukemia. Moreover, the TGI in the assay on MALME-3M melanoma and in the assay on HT29 colon was above 100 µM each time.
Take `O=C(/C=C/c1ccc(O)cc1)c1cc(-c2cc(CCC(=O)c3ccc(O)cc3O)ccc2O)c(O)cc1O`: the total growth inhibition concentration (TGI) in the assay on MDA-MB-435 was above 50 µM; with M14 melanoma it was above 50 µM; in the assay with A498 renal, above 50 µM; with SK-MEL-5 melanoma, above 50 µM; in the assay on SK-OV-3 ovarian, 42.6 µM; in the assay with ACHN renal it was above 50 µM. The TGI is above 50 µM with MOLT-4 leukemia, 29.5 µM in the assay on SR leukemia, above 50 µM with MALME-3M melanoma and 35.8 µM with HT29 colon.
Regarding `C[N+]1(C)C/C(=C\c2ccc(O)cc2)C(=O)/C(=C/c2ccc(O)cc2)C1`, the TGI with M14 melanoma, with A498 renal, in the assay on SK-MEL-5 melanoma, in the assay with SK-OV-3 ovarian, in the assay with ACHN renal and with MOLT-4 leukemia was above 100 µM in each case. Besides, the TGI with SR leukemia, with MALME-3M melanoma and with HT29 colon was above 100 µM in each case.
On to `C=C(C[C@@H](O)[C@H](C)NC(=O)OCc1ccccc1)C(=O)OC(C)(C)C`, for which the TGI with MDA-MB-435, with M14 melanoma, with A498 renal, in the assay with SK-MEL-5 melanoma, with SK-OV-3 ovarian and with ACHN renal was above 100 µM each time. The TGI in the assay on MOLT-4 leukemia, in the assay with SR leukemia, with MALME-3M melanoma and in the assay with HT29 colon was above 100 µM each time.
In the case of `CCOc1ccc(N=Nc2ccc(-c3ccc(N=Nc4c(O)ccc5cc(S(=O)(=O)O)cc(S(=O)(=O)O)c45)cc3)cc2)cc1`, the TGI in the assay with MDA-MB-435, with M14 melanoma, in the assay on SK-MEL-5 melanoma, in the assay with SK-OV-3 ovarian, in the assay with ACHN renal and in the assay with MOLT-4 leukemia was above 100 µM in each case. For the same compound, the TGI with SR leukemia, in the assay with MALME-3M melanoma and in the assay on HT29 colon was above 100 µM in each case.
For the compound `CC(=O)c1c(C)cc2cccc(OC3OC(CO)C(O)C(O)C3O)c2c1O` (stereo not drawn) (tested in a mixture with another compound), the TGI in the assay on MDA-MB-435, in the assay with M14 melanoma, in the assay with A498 renal, with SK-MEL-5 melanoma, in the assay with SK-OV-3 ovarian and with ACHN renal was above 100 µM throughout. The TGI in the assay with MOLT-4 leukemia, with SR leukemia, in the assay with MALME-3M melanoma and in the assay on HT29 colon was above 100 µM in each case.

One may read the TGI as the concentration at which net growth stops. A low value points to more potent growth arrest. Broadly, the GI50 is the concentration that inhibits growth by half.
